Reference: patent US4317826A, “N,N'-Bis[substituted-1,2,3,4 tetrahydroisoquinolyl]disulfonylimides and antiallergic compositions and method of use” (SmithKline Corporation, priority 1980, dated 1982)

Tested on: slow reacting substance of anaphylaxis (SRS-A)
Assay: Inhibition of SRS-A induced contraction of guinea pig ileum
Format: cell-based
Conditions: Cavia porcellus, 0.25 h; compound concentration 5 × 10^-5 M; partially purified SRS-A from guinea pig lung at 40 μg/ml; 15 minute incubation; read-out: Percent Antagonism
Protocol: The SRS-A antagonist activity of the compounds of this invention is measured by the ability of the active medicament to inhibit SRS-A induced contraction of guinea pig ileum. In this test system, sections of ileum are resected from guinea pigs and placed in 5 ml. tissue baths containing a modified Tyrode's solution. One end of the tissue is fixed to a glass tissue holder, the other is connected to a force-displacement transducer and the tissue is placed under a tension of 500 mg. Isometric tissue contractions are recorded on a six channel polygraph. Baths are constantly aerated with 95% O2 -5% CO2. After a 20 minute stabilization period a concentration of the appropriate agonist which provides a contraction height of 60-80% of the maximum obtainable to that agonist (as determined from full sequential concentration--response curves in separate experiments) is added to the tissue bath and the response recorded. The procedure is repeated until reproducible responses are obtained. For most agonists, two applications in rapid succession, followed 15 minutes later by a third, is sufficient to establish reproducibility. Experimental tissues are incubated with the selected concentration of the test compounds for 15 minutes. Experimental and control tissues are subjected to 5 bath changes during the incubation interval. Changes in bath fluid during the incubation period are helpful in insuring the reproducibility of tissue responses to the agonist. The same concentration of the agonist is reapplied in the presence of the test compound and the response registered and compared with controls. Percent inhibition produced by the test compound is calculated by subtracting the mean percentage change in control tissue from the mean percentage change in tissues exposed to the test compound. Additional compounds are then evaluated as long as the tissue remains reproducibly responsive to the agonist. Six tissues obtained from 6 animals are used simultaneously--3 controls and 3 experimental.
The compounds of this invention tested at concentrations of from 5×10^-5 to 5×10^-6 produce marked antagonism of partially purified slow reacting substance of anaphylaxis obtained from guinea pig lung. The agonist is employed at a concentration of 40 μg/ml. Representative of this effect, tabulated below are a number of the claimed compounds and percent antagonism of SRS-A at various compound concentrations.

`O=S(=O)(NS(=O)(=O)N1CCc2cc(Cl)ccc2C1)N1CCc2cc(Cl)ccc2C1` [H 6-Cl H H] showed an inhibition at 50 µM of 84.2%.

Same assay, conditions: Cavia porcellus, 0.25 h; compound concentration 5 × 10^-6 M; partially purified SRS-A from guinea pig lung at 40 μg/ml; 15 minute incubation; read-out: Percent Antagonism

Going from `O=S(=O)(NS(=O)(=O)N1CCc2ccc(Cl)c(Cl)c2C1)N1CCc2ccc(Cl)c(Cl)c2C1` [7-Cl 8-Cl H H, N,N'-bis(7,8-dichloro-1,2,3,4,-tetrahydroisoquinolyl)disulfonylimide] to `Cc1ccc2c(c1Cl)CN(S(=O)(=O)NS(=O)(=O)N1CCc3ccc(C)c(Cl)c3C1)CC2` [7-CH3 8-Cl H H], the inhibition at 5 µM rises from 42% to 49.9%.

Going from `O=S(=O)(NS(=O)(=O)N1CCc2cc(Cl)c(Cl)cc2C1)N1CCc2cc(Cl)c(Cl)cc2C1` [7-Cl 6-Cl H H] to `O=S(=O)(NS(=O)(=O)N1CCc2c(Br)cccc2C1)N1CCc2c(Br)cccc2C1` [H 5-Br H H], the inhibition at 5 µM falls from 56.3% to 45.2%.

Going from `CC(C)C1c2c(ccc(Cl)c2Cl)CCN1S(=O)(=O)NS(=O)(=O)N1CCc2ccc(Cl)c(Cl)c2C1C(C)C` (centres unmarked) [7-Cl 8-Cl CH(CH3)2 H] to `O=S(=O)(NS(=O)(=O)N1CCc2ccc(Cl)c(Cl)c2C1C1CC1)N1CCc2ccc(Cl)c(Cl)c2C1C1CC1` (centres unmarked) [7-Cl 8-Cl [drawing 3] H], the inhibition at 5 µM falls from 63% to 60%.

Going from `O=S(=O)(NS(=O)(=O)N1CCc2ccc(C(F)(F)F)c(C(F)(F)F)c2C1)N1CCc2ccc(C(F)(F)F)c(C(F)(F)F)c2C1` [7-CF3 8-CF3 H H] to `O=S(=O)(NS(=O)(=O)N1CCc2ccc(Cl)c(SC(F)(F)C(F)F)c2C1)N1CCc2ccc(Cl)c(SC(F)(F)C(F)F)c2C1` [7-Cl 8-SCF2 CF2 H H H], the inhibition at 5 µM rises from 26.8% to 36.2%.

Compared with `O=S(=O)(NS(=O)(=O)N1CCc2c(Br)ccc(Br)c2C1)N1CCc2c(Br)ccc(Br)c2C1` [8-Br 5-Br H H], `CC1Cc2ccc(Cl)c(Cl)c2CN1S(=O)(=O)NS(=O)(=O)N1Cc2c(ccc(Cl)c2Cl)CC1C` (centres unmarked) [7-Cl 8-Cl H CH3] is higher in inhibition at 5 µM: 22.9% for the first, 52.5% for the second.
